Our source for the EC50 and Emax values is patent publication US10130615B2, “Benzomorphan analogs and the use thereof” (priority 2014, dated 2018).

Test [1] concerns the target T1, μ-opioid receptor (Homo sapiens, UniProt P35372). The experiment in a line: cell-based. More on the design: purchased Perkin Elmer, Shelton, Conn. Conditions: U2OS cells; for EC50: read-out: β-Arr2 μ EC50; for Emax: read-out: β-Arr2 μ Emax.
In test [2] the target is T1, μ-opioid receptor. The experiment in a line: μ-opioid receptor GTPγS functional assay, U2OS cells. To be noted: for Emax: read-out: GTPγS μ Emax.
Test [3] addresses T2, κ-opioid receptor (Homo sapiens, UniProt P41145). The experiment in a line: κ-opioid receptor GTPγS functional assay, U2OS cells. It counts as biochemical. Further details: expressed in transfected cells; host or cells: U-2 OS. Conditions: U2OS cells; for EC50: read-out: GTPγS κ EC50. How it is done: (§1) Plates were incubated for 30 min at a temperature of about 25° C. with shaking.

For test [4], the target named is T2, κ-opioid receptor. Kind of test: κ-opioid receptor β-Arr2 activity response, U2OS cells. The test is classed as cell-based. Further details: expressed in transfected cells; host or cells: U-2 OS. To be noted: U2OS cells; for EC50: read-out: β-Arr2 κ EC50.
Test [5] concerns the target T1, μ-opioid receptor. The experiment in a line: biochemical. Further details: purchased Perkin Elmer, Shelton, Conn; host or cells: HEK-293 or CHO. To be noted: HEK-293 or CHO cells; for EC50: read-out: GTPγS μ EC50; for Emax: relative to DAMGO, read-out: GTPγS μ Emax.
The target in test [6] is T2, κ-opioid receptor. The experiment in a line: κ-opioid receptor [35S]GTPγS functional assay, HEK-293 or CHO cells. The test is classed as biochemical. More on the design: expressed in transfected cells; host or cells: HEK-293. Conditions: HEK-293 or CHO cells. How it is done:
as §1

T2 sequence (P41145 whole entry): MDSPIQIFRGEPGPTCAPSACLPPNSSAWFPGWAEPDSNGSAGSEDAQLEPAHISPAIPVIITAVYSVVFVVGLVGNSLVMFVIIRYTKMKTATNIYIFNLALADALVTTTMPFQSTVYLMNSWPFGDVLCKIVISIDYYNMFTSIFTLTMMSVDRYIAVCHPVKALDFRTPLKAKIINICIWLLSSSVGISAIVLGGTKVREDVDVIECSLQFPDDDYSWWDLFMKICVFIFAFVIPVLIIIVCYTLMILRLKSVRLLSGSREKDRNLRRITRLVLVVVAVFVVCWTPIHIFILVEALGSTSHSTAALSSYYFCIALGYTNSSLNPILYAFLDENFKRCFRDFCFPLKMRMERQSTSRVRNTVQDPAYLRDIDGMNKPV
T1 sequence (P35372 whole entry, species assumed): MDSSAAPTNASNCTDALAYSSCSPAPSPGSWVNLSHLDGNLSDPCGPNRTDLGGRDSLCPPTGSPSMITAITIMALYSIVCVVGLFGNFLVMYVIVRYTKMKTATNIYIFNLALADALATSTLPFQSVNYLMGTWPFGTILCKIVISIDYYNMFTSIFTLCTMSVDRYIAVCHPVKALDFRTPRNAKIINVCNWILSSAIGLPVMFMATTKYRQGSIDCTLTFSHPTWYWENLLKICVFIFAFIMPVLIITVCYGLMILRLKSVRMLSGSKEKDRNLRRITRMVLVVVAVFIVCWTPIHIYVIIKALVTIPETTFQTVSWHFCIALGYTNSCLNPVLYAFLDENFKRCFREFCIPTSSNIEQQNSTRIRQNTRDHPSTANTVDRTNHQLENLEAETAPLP

Consider `C[C@H]1[C@H]2Cc3ccc(O)cc3[C@]1(CCOc1cncc(C(=O)O)c1)CCN2C` [Compound 52, 5-(2-((2R,6S,11R)-8-hydroxy-3,11-dimethyl-2,3,4,5-tetrahydro-2,6-methanobenzo[d]azocin-6(1H)-yl)ethoxy)nicotinic acid], for which the EC50 was found to be 403 ± 110 nM at μ-opioid receptor [1], 68.1 ± 6.57 nM at μ-opioid receptor [2], 434 ± 39.1 nM at κ-opioid receptor [3] and 320 ± 46.9 nM at μ-opioid receptor [5]. Further, the Emax on μ-opioid receptor [1] worked out at 6.77 ± 1.13%; on μ-opioid receptor [2] it was 89 ± 4%; on κ-opioid receptor [3] it was 99 ± 1.73%; on κ-opioid receptor [4], 1%; at μ-opioid receptor [5] it was 35 ± 1.53%.

Regarding `COc1ccc2c(c1)[C@]1(CCNC(=O)[C@H](C)NC(C)=O)CCN(CC3CC3)[C@H](C2)[C@@H]1C` [Compound 4, (S)-2-acetamido-N-(2-((2R,6R,11R)-3-(cyclopropylmethyl)-8-methoxy-11-methyl-2,3,4,5-tetrahydro-2,6-methanobenzo[d]azocin-6(1H)-yl)ethyl)propanamide], the Emax on μ-opioid receptor [1] is 1.3 ± 0.77%; at μ-opioid receptor [2] it was 80.2 ± 3.3%; on κ-opioid receptor [3], 97 ± 5.29%; on κ-opioid receptor [4], 59.3 ± 4.06%; on μ-opioid receptor [5], 0%. Also, the concentration for a half-maximal effect (EC50) at μ-opioid receptor [2] was 522 ± 60.1 nM; at κ-opioid receptor [3], 38.2 ± 4.89 nM; at κ-opioid receptor [4] it was 403 ± 59.9 nM.

In the case of `C[C@H]1[C@H]2Cc3ccc(O)cc3[C@]1(CC(=O)N1CCC(N(C3CC3)S(=O)(=O)c3ccc(Cl)cc3)CC1)CCN2C` [Compound 61, 4-chloro-N-cyclopropyl-N-(1-(2-((2R,6S,11R)-8-hydroxy-3,11-dimethyl-2,3,4,5-tetrahydro-2,6-methano-benzo[d]azocin-6(1H)-yl)acetyl)-piperidin-4-yl)benzenesulfonamide], the EC50 came to 649 ± 180 nM at μ-opioid receptor [1]; 146 ± 24.8 nM on μ-opioid receptor [2]; 45.4 ± 6.69 nM on κ-opioid receptor [3]; 7290 ± 2060 nM on κ-opioid receptor [4]; 283 ± 28.8 nM on μ-opioid receptor [5]. Also, the Emax on μ-opioid receptor [1] was found to be 7.67 ± 0.73%; at μ-opioid receptor [2], 78.7 ± 0.33%; on κ-opioid receptor [3], 42.7 ± 2.03%; on κ-opioid receptor [4], 14.7 ± 1.33%; at μ-opioid receptor [5], 35.7 ± 1.2%.

In the case of `C[C@H]1[C@H]2Cc3ccc(O)cc3[C@]1(CCNS(C)(=O)=O)CCN2CC1CC1` [Compound 3, N-(2-((2R,6S,11R)-3-(cyclopropyl-methyl)-8-hydroxy-11-methyl-2,3,4,5-tetrahydro-2,6-methanobenzo[d]azocin-6(1H)-yl)ethyl)methanesulfonamide], the Emax on μ-opioid receptor [1] was 0%; at μ-opioid receptor [2], 16.7 ± 0.33%; at κ-opioid receptor [3] it was 104 ± 2.52%; on κ-opioid receptor [4], -0.33 ± 0.67%. Further, the concentration giving a half-maximal response (EC50) came to 0.85 ± 0.11 nM on μ-opioid receptor [2] and 0.32 ± 0.031 nM at κ-opioid receptor [3].

Turning to `COc1ccc2c(c1)[C@]1(CCOCc3ccccc3)CCN(C)[C@H](C2)[C@@H]1C` [Compound 48, (2R,6S,11R)-6-(2-(benzyloxy)ethyl)-8-methoxy-3,11-dimethyl-1,2,3,4,5,6-hexahydro-2,6-methanobenzo[d]azocine], the EC50 on μ-opioid receptor [1] was 4380 ± 627 nM; on μ-opioid receptor [2] it was 313 ± 28 nM; on κ-opioid receptor [3], 104 ± 15.8 nM; at κ-opioid receptor [4] it was 16300 ± 7600 nM; on μ-opioid receptor [5], 2240 ± 190 nM. The Emax was found to be 27.7 ± 0.88% at μ-opioid receptor [1]; 97 ± 2.08% on μ-opioid receptor [2]; 108 ± 4.51% on κ-opioid receptor [3]; 64.3 ± 9.39% at κ-opioid receptor [4]; 53.1 ± 4.36% at μ-opioid receptor [5].

As for `C[C@H]1[C@H]2Cc3ccc(O)cc3[C@]1(CCNS(=O)(=O)C1CC1)CCN2CC1CC1` [Compound 6, N-(2-((2R,6S,11R)-3-(cyclopropyl-methyl)-8-hydroxy-11-methyl-2,3,4,5-tetrahydro-2,6-methanobenzo[d]azocin-6(1H)-yl)ethyl)-cyclopropanesulfonamide], the Emax at μ-opioid receptor [1] was -0.33 ± 0.67%; at μ-opioid receptor [2], 30.7 ± 0.88%; on κ-opioid receptor [3], 107 ± 2.65%; on μ-opioid receptor [5], -0.33 ± 0.67%. Besides, the EC50 on μ-opioid receptor [2] came to 0.88 ± 0.095 nM; at κ-opioid receptor [3], 0.072 ± 0.013 nM.

Take `C[C@H]1[C@H]2Cc3ccc(O)cc3[C@]1(CCNCCc1ccc(S(N)(=O)=O)cc1)CCN2C` [Compound 59, 4-(2-((2-((2R,6R,11R)-8-hydroxy-3,11-dimethyl-2,3,4,5-tetrahydro-2,6-methanobenzo[d]azocin-6(1H)-yl)ethyl)amino)ethyl)benzenesulfonamide]: the Emax at μ-opioid receptor [1] was -1%; on μ-opioid receptor [2], 74 ± 3.51%; on κ-opioid receptor [3] it was 112 ± 7.54%; at κ-opioid receptor [4], 1%; on μ-opioid receptor [5] it was 38 ± 4.18%. The EC50 on μ-opioid receptor [2] amounted to 85.6 ± 9.67 nM; on κ-opioid receptor [3], 61.2 ± 10 nM; on μ-opioid receptor [5], 369 ± 50.2 nM.

As for `C[C@H]1[C@H]2Cc3ccc(O)cc3[C@]1(CCN1CCC(N(C3CC3)S(=O)(=O)c3ccc(Cl)cc3)CC1)CCN2C` [Compound 58, 4-chloro-N-cyclopropyl-N-(1-(2-((2R,6R,11R)-8-hydroxy-3,11-dimethyl-2,3,4,5-tetrahydro-2,6-methanobenzo-[d]azocin-6(1H)-yl)ethyl)piperidin-4-yl)-benzenesulfonamide], the concentration giving a half-maximal response (EC50) on μ-opioid receptor [1] came out at 2140 ± 586 nM; at μ-opioid receptor [2] it was 20.3 ± 1.82 nM; on κ-opioid receptor [3], 11 ± 1.59 nM; on κ-opioid receptor [4] it was 8900 ± 1620 nM; on μ-opioid receptor [5], 179 ± 12.7 nM. Besides, the Emax on μ-opioid receptor [1] came out at 77.7 ± 7.06%; on μ-opioid receptor [2], 98 ± 2%; on κ-opioid receptor [3] it was 60 ± 1%; on κ-opioid receptor [4], 80.3 ± 7.75%; at μ-opioid receptor [5], 53.3 ± 2.96%.

With `COc1ccc2c(c1)[C@]1(CCNC(=O)[C@@H]3CCCN3C(C)=O)CCN(CC3CC3)[C@H](C2)[C@@H]1C` [Compound 5, (S)-1-acetyl-N-(2-((2R,6R,11R)-3-(cyclopropylmethyl)-8-methoxy-11-methyl-2,3,4,5-tetrahydro-2,6-methanobenzo[d]azocin-6(1H)-yl)ethyl)pyrrolidine-2-carboxamide], the Emax is -1% at μ-opioid receptor [1]; 75.2 ± 1.55% at μ-opioid receptor [2]; 100 ± 4.58% on κ-opioid receptor [3]; 58.7 ± 5.93% at κ-opioid receptor [4]; 16.3 ± 1.44% on μ-opioid receptor [5]. Moreover, the EC50 turned out to be 629 ± 16.8 nM on μ-opioid receptor [2], 63.3 ± 10.2 nM at κ-opioid receptor [3], 407 ± 65.5 nM on κ-opioid receptor [4] and 468 ± 122 nM on μ-opioid receptor [5].

On to `C[C@H]1[C@H]2Cc3ccc(O)cc3[C@]1(CCN1CCN(C(c3ccc(F)cc3)c3ccc(F)cc3)CC1)CCN2C` [Compound 8, (2R,6R,11R)-6-(2-(4-(bis(4-fluoro-phenyl)methyl)piperazin-1-yl)ethyl)-3,11-dimethyl-1,2,3,4,5,6-hexahydro-2,6-methanobenzo[d]azocin-8-ol], for which the values for the EC50 at μ-opioid receptor [1], at μ-opioid receptor [2] and at μ-opioid receptor [5] were 4710 ± 227 nM, 72.7 ± 4.92 nM and 796 ± 72.2 nM, respectively. The Emax on μ-opioid receptor [1] is 70.7 ± 6.98%; on μ-opioid receptor [2] it was 100 ± 3.06%; on μ-opioid receptor [5] it was 47 ± 1.53%.

As to `CCOC(=O)c1ccc(NC(=O)NCC[C@]23CCN(CC4CC4)[C@H](Cc4ccc(OC)cc42)[C@@H]3C)cc1` [Compound 1, Ethyl 4-(3-(2-((2R,6R,11R)-3-(cyclopropylmethyl)-8-methoxy-11-methyl-2,3,4,5-tetrahydro-2,6-methanobenzo[d]azocin-6(1H)-yl)ethyl)ureido)benzoate], the Emax on μ-opioid receptor [1] turned out to be 25.5%; on μ-opioid receptor [2], 62 ± 2.08%; on κ-opioid receptor [3], 103 ± 3.53%; at κ-opioid receptor [4] it was 44.2 ± 4.05%; on κ-opioid receptor [6] (relative to U69,593), 78.3 ± 0.91%; on μ-opioid receptor [5], 27.8 ± 0.85%. The concentration for a half-maximal effect (EC50) is 164 ± 31.6 nM at μ-opioid receptor [2]; 5.79 ± 0.56 nM at κ-opioid receptor [3]; 63.8 ± 7.23 nM on κ-opioid receptor [4]; 33.4 ± 2.26 nM on κ-opioid receptor [6] (read-out: GTPγS κ EC50); 4.21 ± 0.67 nM at μ-opioid receptor [5].

`C[C@H]1[C@H]2Cc3ccc(O)cc3[C@]1(CC(=O)NCCc1ccc(S(N)(=O)=O)cc1)CCN2C` [Compound 62, 2-((2R,6S,11R)-8-hydroxy-3,11-dimethyl-2,3,4,5-tetrahydro-2,6-methanobenzo[d]azocin-6(1H)-yl)-N-(4-sulfamoylphenethyl)acetamide]: the Emax on μ-opioid receptor [1] is -1%; on μ-opioid receptor [2], 49.7 ± 0.88%; at κ-opioid receptor [3], 35.7 ± 1.67%; on μ-opioid receptor [5], 17 ± 1.53%. Also, the EC50 was 172 ± 18.7 nM on μ-opioid receptor [2], 1120 ± 53.4 nM on κ-opioid receptor [3] and 538 ± 22.9 nM at μ-opioid receptor [5].
